Source: PubChem BioAssay (NCI)
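All cell lines were grown in 96-well plates and treated with compound for 48 hours. GI50 is the concentration that inhibits growth by half. TGI is the concentration that stops growth completely.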

What was measured:
Test in all cases: NCI-60 cell line screen, 48 h
CAKI-1 renal = tested on: CAKI-1 renal
MALME-3M melanoma = tested on: MALME-3M melanoma
SF-268 CNS = tested on: SF-268 CNS
OVCAR-5 ovarian = tested on: OVCAR-5 ovarian
HCT-15 colon = tested on: HCT-15 colon
SF-295 CNS = tested on: SF-295 CNS
786-0 renal = tested on: 786-0 renal
MCF7 breast = tested on: MCF7 breast
SK-OV-3 ovarian = tested on: SK-OV-3 ovarian
NCI-H23 lung = tested on: NCI-H23 lung

SMILES | TGI (CAKI-1 renal) | TGI (MALME-3M melanoma) | TGI (SF-268 CNS) | TGI (OVCAR-5 ovarian) | TGI (HCT-15 colon) | TGI (SF-295 CNS) | TGI (786-0 renal) | GI50 (MALME-3M melanoma) | GI50 (SF-268 CNS) | GI50 (OVCAR-5 ovarian) | GI50 (HCT-15 colon) | GI50 (MCF7 breast) | TGI (MCF7 breast) | GI50 (SF-295 CNS) | GI50 (786-0 renal) | GI50 (SK-OV-3 ovarian) | TGI (SK-OV-3 ovarian) | GI50 (NCI-H23 lung) | TGI (NCI-H23 lung) | GI50 (CAKI-1 renal)
Cc1ccc(Sc2cc([N+](=O)[O-])cc(Sc3ccc(C)cc3)c2Sc2ccc(C)cc2)cc1 | > 100 µM | > 100 µM | > 100 µM | > 100 µM | > 100 µM | > 100 µM | > 100 µM | – | – | – | – | – | – | – | – | – | – | – | – | –
COC(=O)/C=C/c1cc(OC)c2c(c1)[C@@H](C(=O)OC)[C@H](c1ccc(OC)c(OC)c1)O2 | – | > 100 µM | > 100 µM | > 100 µM | > 100 µM | > 100 µM | > 100 µM | > 100 µM | 2.91 µM | 5.23 µM | 0.486 µM | 0.388 µM | 14.2 µM | 0.715 µM | 4.89 µM | 6.13 µM | > 100 µM | 3.57 µM | > 100 µM | –
COc1ccc(/C=C\c2cc(OC)c(OC(C)=O)c(OC)c2)cc1 | > 100 µM | 91.1 µM | > 100 µM | 88.8 µM | 97 µM | – | > 100 µM | – | – | – | – | – | – | – | – | – | > 100 µM | – | 63.4 µM | –
O=C1OC(/C=C/c2ccccc2)C(=O)C1=O (stereo unspecified) | – | > 100 µM | > 100 µM | > 100 µM | > 100 µM | > 100 µM | > 100 µM | – | – | – | – | – | – | – | – | – | > 100 µM | – | > 100 µM | –
O=C(c1ccccc1)C(c1ccccc1)C1(O)C(=O)Nc2ccc(Br)cc21 (stereo unspecified) | > 100 µM | > 100 µM | > 100 µM | > 100 µM | > 100 µM | > 100 µM | > 100 µM | – | – | – | – | – | – | – | – | – | > 100 µM | – | > 100 µM | –
COc1cccc(/C=N/[N-]C(N)=O)c1[O-].[Cu+2].c1ccncc1 | 31.1 µM | 28.3 µM | 39.2 µM | 45.1 µM | > 100 µM | 62.4 µM | 24 µM | – | – | – | – | – | – | – | – | – | 49.7 µM | – | 45.8 µM | –
CCn1cc(C(=O)O)c(=O)c2cc(F)c(N3CCNCC3)nc21 | – | > 100 µM | > 100 µM | > 100 µM | > 100 µM | > 100 µM | > 100 µM | – | – | – | – | – | – | – | – | – | > 100 µM | – | > 100 µM | –
CC(=O)c1ccc(-c2ccc(C(C)=O)s2)s1 | > 100 µM | > 100 µM | – | > 100 µM | > 100 µM | > 100 µM | > 100 µM | – | – | – | – | – | – | – | – | – | > 100 µM | – | > 100 µM | –
OC(c1cc2c(Cl)cc(Cl)cc2c2cc(C(F)(F)F)ccc12)C1CCCCN1 (stereo unspecified) | 3.46 µM | 3.91 µM | 3.82 µM | 3.15 µM | – | – | 3.5 µM | 1.85 µM | 1.86 µM | 1.58 µM | – | – | – | – | 1.66 µM | 1.67 µM | 3.26 µM | 1.66 µM | 3.43 µM | 1.68 µM
O=C1C2Cc3ccccc3CN2C(=O)N1CCN1CCOCC1 (stereo unspecified) | > 100 µM | > 100 µM | > 100 µM | > 100 µM | > 100 µM | > 100 µM | > 100 µM | – | – | – | – | – | – | – | – | – | – | – | > 100 µM | –
COc1ccc2c(c1)[n+](=O)c(C(=O)C/C(=N\NC(=O)C[N+](C)(C)C)C(=O)Nc1cc(Cl)ccc1Cl)c(C)n2O | > 100 µM | > 100 µM | > 100 µM | > 100 µM | > 100 µM | > 100 µM | > 100 µM | – | – | – | – | – | – | – | – | – | – | – | > 100 µM | –
Cn1c(=O)ccc2cc(C(=O)c3ccccc3)ccc21 | > 100 µM | > 100 µM | > 100 µM | > 100 µM | > 100 µM | > 100 µM | > 100 µM | – | – | – | – | – | – | – | – | – | > 100 µM | – | > 100 µM | –
C=C1[C@@H]2CCC(C)(C)[C@H]1CCC(=O)[C@@H]2C(=O)OC | – | > 100 µM | > 100 µM | – | > 100 µM | > 100 µM | > 100 µM | – | – | – | – | – | – | – | – | – | – | – | > 100 µM | –
CCN(CC)[C@@H]1c2cc3c(cc2C(c2cc(OC)c(O)c(OC)c2)C2C(=O)CO[C@@H]21)OCO3 (stereo partly specified) | > 100 µM | > 100 µM | > 100 µM | > 100 µM | > 100 µM | > 100 µM | > 100 µM | – | – | – | – | – | – | – | – | – | > 100 µM | – | > 100 µM | –
COc1cc(/C=C/C(=O)c2ccc(SC)cc2)cc(OC)c1OC | 32.2 µM | 26.1 µM | 37.8 µM | 35.6 µM | 14.4 µM | – | 20.4 µM | 6.31 µM | 16 µM | 20.6 µM | 3.6 µM | 5.22 µM | 24.1 µM | – | 6.43 µM | 15.8 µM | 30.6 µM | 10 µM | 23.5 µM | 16.1 µM
CCCCCCCCCCCCCCCc1nc(SCC(=O)O)n[nH]1 | > 100 µM | > 100 µM | > 100 µM | – | > 100 µM | > 100 µM | 42.1 µM | – | – | – | – | – | – | – | – | – | > 100 µM | – | > 100 µM | –
C[C@]12CC[C@H](O)CC1CCC[C@@H]2O (stereo partly specified) | > 100 µM | > 100 µM | > 100 µM | – | > 100 µM | > 100 µM | > 100 µM | – | – | – | – | – | – | – | – | – | > 100 µM | – | > 100 µM | –
CC1(C)OC(=O)C(c2ccsc2)C(=O)O1 | > 100 µM | > 100 µM | > 100 µM | > 100 µM | > 100 µM | > 100 µM | > 100 µM | – | – | – | – | – | – | – | – | – | > 100 µM | – | > 100 µM | –
O=c1c2ccc(Br)cc2nc(-c2ccccc2)n1NC1OC(CO)C(O)C(O)C1O (stereo unspecified) | > 100 µM | > 100 µM | > 100 µM | > 100 µM | > 100 µM | > 100 µM | > 100 µM | – | – | – | – | – | – | – | – | – | > 100 µM | – | > 100 µM | –
OC1OC2COC(c3ccccc3)OC2C(O)C1O (stereo unspecified) | > 100 µM | > 100 µM | > 100 µM | > 100 µM | > 100 µM | > 100 µM | > 100 µM | – | – | – | – | – | – | – | – | – | > 100 µM | – | > 100 µM | –
Fc1cccc(C2SCc3nc4ccccc4n32)c1 (stereo unspecified) | > 100 µM | > 100 µM | > 100 µM | 79.3 µM | – | > 100 µM | > 100 µM | – | – | – | – | – | – | – | – | – | > 100 µM | – | > 100 µM | –
Nc1c2c(c(O)c3c1=C(CO)C=N3)=NCCS2=O (stereo unspecified) | – | 0.739 µM | 3.27 µM | 3.91 µM | 10.6 µM | 4.12 µM | 4.52 µM | 0.253 µM | 1.24 µM | 1.66 µM | 2.99 µM | 0.63 µM | 2.83 µM | 2.12 µM | 1.98 µM | 3.11 µM | 10.9 µM | 0.615 µM | 5.64 µM | –
